Reference: patent publication US20220142967A1, “Methods and Compositions for the Treatment of Multiple Sclerosis” (SYMBIONYX PHARMACEUTICALS INC, priority 2018, published 2022)
Counter-ions that a name gives are not always drawn.

Test system: NFE2L2 (NRF2) binding sites
Assay: Enrichment of NFE2L2 (NRF2) and other binding sites upstream of IDMF-regulated genes
Type: cell-based, human
Description: RNA sample processing and microarray hybridizations were performed using the Affymetrix Human Genome U133 Plus 2.0 array platform. DNA microarray samples evaluated included IDMF- and vehicle-treated KCs (n=2 replicates per group). Samples were normalized using the robust multichip average (RMA) algorithm. Identification of probe sets with detectable expression was performed using the MAS 5.0 method, which identifies probe sets with above-background expression based upon the Wilcoxon signed rank test. To limit redundancy in downstream analyses, a single probe set was chosen to represent each protein-coding human gene featured on the microarray platform. This representative was chosen as the probe set with highest expression for each protein-coding human gene. These probe sets were then additionally filtered to include only those with detectable expression in at least 1 of the 4 samples (P<0.05, Wilcoxon signed rank test). Overall, this yielded a total of 12330 protein-coding genes that were included in analyses, with each gene represented by a single representative probe set. Bayesian linear models and moderated t-statistics were then used to evaluate differential expression for each of the 12330 genes (IDMF vs. CTL treatment; R package: limma). To control the false discovery rate (FDR), raw p-values generated from linear model analyses were adjusted using the Benjamini-Hochberg method.
As noted in the background section above, the transcription factor nuclear factor (erythroid-derived 2)-like 2 (NFE2L2/NRF2) has previously been associated with multiple sclerosis. In this study, IDMF-regulated genes were evaluated to determine the extent to which IDMF led to the enrichment of NFE2L2/NRF2 binding sites in promoter-proximal regions. For these analyses, a NFE2L2/NRF2 binding site was obtained from the JASPAR database (JASPAR ID: MA0150). This binding site partially matches the consensus sequence 5-[A/G]TGAC—AGCA-3: additional information can be obtained from http://jaspar.genereg.net/cgi-bin/jaspar_db.pl?ID=MA0150.1&rm=present&collection=CORE. Tests for enrichment were performed by scanning regions 1 kb, 2 kb or 5 kb upstream of protein-coding genes, including either all sequence (conserved=No) or only sequences conserved among mammalian species (conserved=Yes). A positive Z statistic indicates a trend towards increased NFE2L2 (NRF2) binding sites in sequences upstream of IDMF-increased […] (DEGs), as compared to all other expressed genes). P-values indicate the significance of the reported Z statistic (semiparametric generalized additive logistic models). Predicted targets include IDMF-increased DEGs with the NFE2L2 (NRF2) binding site identified within the scanned upstream region.

Question: Which “enrichment of NF-kappaB binding sites upstream of IDMF-decreased genes” value (FDR<0.10 with FC<0.67, P=1.16E-08) does the source give for COC(=O)/C=C/C(=O)O[C@H]1CO[C@H]2[C@@H]1OC[C@H]2OC(=O)/C=C/C(=O)OC [IDMF, isosorbide di-(methyl fumarate)] here?
Answer: strongly enriched

Question: And the “Z Statistic, enrichment of NFE2L2 (NRF2) binding sites upstream of IDMF-increased DEGs” value (shortened to “Z Statistic, enrichment … of IDMF-increased DEGs”) (Region 1 kb, Conserved No)?
Answer: 4.74

Question: And the “Z Statistic, enrichment … of IDMF-increased DEGs” value (Region 1 kb, Conserved Yes)?
Answer: 5.91

Question: And the “Z Statistic, enrichment … of IDMF-increased DEGs” value (Region 2 kb, Conserved No)?
Answer: 3.37

Question: And the “Z Statistic, enrichment … of IDMF-increased DEGs” value (Region 2 kb, Conserved Yes)?
Answer: 3.21

Question: What about the “Z Statistic, enrichment … of IDMF-increased DEGs” value (Region 5 kb, Conserved No) of the same molecule?
Answer: 2.11

Question: What about the “Z Statistic, enrichment … of IDMF-increased DEGs” value (Region 5 kb, Conserved Yes) of the same molecule?
Answer: 1.05
